According to patent publication US20120178765A1, “NOVEL GLUCOKINASE ACTIVATORS AND PROCESSES FOR THE PREPARATION THEREOF” (YUHAN CORPORATION, priority 2009, published 2012):
pEC50: −log10 of the molar value.

Target: T1, Glucokinase (Homo sapiens, UniProt P35557)
T1 construct: purchased ProteinOne Inc
T1 sequence (P35557 1-465): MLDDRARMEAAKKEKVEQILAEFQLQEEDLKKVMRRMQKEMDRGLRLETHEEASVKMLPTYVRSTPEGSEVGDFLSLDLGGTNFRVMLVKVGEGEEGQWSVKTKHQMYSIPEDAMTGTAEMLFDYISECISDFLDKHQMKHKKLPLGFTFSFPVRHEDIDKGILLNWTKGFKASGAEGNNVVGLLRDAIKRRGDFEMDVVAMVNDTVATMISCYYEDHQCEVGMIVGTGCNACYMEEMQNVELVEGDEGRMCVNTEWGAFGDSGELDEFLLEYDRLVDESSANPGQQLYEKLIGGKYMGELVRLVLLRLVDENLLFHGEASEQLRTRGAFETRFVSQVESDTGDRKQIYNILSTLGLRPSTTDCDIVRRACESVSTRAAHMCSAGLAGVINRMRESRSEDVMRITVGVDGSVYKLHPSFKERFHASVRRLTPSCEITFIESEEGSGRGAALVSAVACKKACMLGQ
Test: Glucokinase activation assay (NADPH absorbance at 340 nm)
Type: biochemical
Details: glucokinase (ProteinOne Inc.), 5 mM D(+)-glucose, 24° C., 90 minutes
Procedure: The amounts of glucokinase activation were determined by measuring the levels of NADPH (the final metabolite of glucose through glucokinase-mediated phospho-rylation) and then calculating to glucokinase activities.
Glucokinase (ProteinOne Inc.) was added, in the concentration of 100 ng/uL, to a enzyme-reaction medium (25 mM HEPES pH 7, 25 mM KCL, 1 mM MgCl, 5 mM D(+)-glucose, 1 mM ATP, 1 mM NADP, 1 mM DTT, and 2.5 u/mL G6PDH). Each compound in predetermined concentrations was added to the enzyme-reaction medium and then absorbance (First Absorbance) was measured at 340 nm of wavelength. After measuring the first absorbance, each reaction mixture was incubated at 24° C. for 90 minutes and then absorbance (Second Absorbance) was re-measured at 340 nm of wavelength. Using changes between First Absorbance and Second Absorbance, glucokinase activity was calculated. In the calculation, a maximum activity of the test compound (Emax), in comparison to the control group (no treatment of compound) was determined and then EC50 was calculated using the software for statistical analysis “Prism”, based on the activity-changes according to concentrations of the test compounds.
The amounts of glucokinase activation of the compounds of Comparative Examples 1 and 2 were determined, in accordance with the same procedures as in Test Example 1.

Compound | pEC50
3-[trans-2-(4-nitrophenyl)vinyl]-5-(2-methoxy-(1S)-methyl-ethoxy)-N-(5-fluorothiazol-2-yl)-benzamide [Example 21] | 6.47
3-[trans-2-(4-nitrophenyl)vinyl]-5-(2-methoxy-(1S)-methyl-ethoxy)-N-(thiazol-2-yl)-benzamide [Example 15] | 6.89
3-[trans-2-(2-methoxyphenyl)vinyl]-5-(2-methoxy-(1S)-methyl-ethoxy)-N-(1-methyl-1 H-pyrazol-3-yl)-benzamide [Example 42] | 6.94
3-[2-(2-benzenesulfonylaminophenyl)ethyl]-5-(2-methoxy-(1S)-methyl-ethoxy)-N-(thiazol-2-yl)-benzamide [Example 115] | 6.68
3-{2-[3-(phenylacetylamino)phenyl]ethyl}-5-(2-methoxy-(1S)-methyl-ethoxy)-N-(thiazol-2-yl)-benzamide [Example 123] | 6.65
COc1cccc(/C=C/c2cc(OCC(C)C)cc(C(=O)Nc3nccs3)c2)c1OC [Example 5, 3-[trans-2-(2,3-dimethoxyphenyl)vinyl]-5-isobutoxy-N-(thiazol-2-yl)-benzamide] | 6.76
3-[trans-2-(2,6-dimethoxyphenyl)vinyl]-5-(2-methoxy-(1S)-methyl-ethoxy)-N-(5-fluorothiazol-2-yl)-benzamide [Example 29] | 6.89
3-[2-(3-chlorophenyl)ethyl]-5-(2-methoxy-(1S)-methyl-ethoxy)-N-(1-methyl-1H-pyrazol-3-yl)-benzamide [Example 102] | 6.58
3-[trans-2-(4-methoxyphenyl)vinyl]-5-(2-methoxy-(1S)-methyl-ethoxy)-N-(pyrazin-2-yl)-benzamide [Example 49] | 6.42
3-[trans-2-(3-bromophenyl)vinyl]-5-(2-methoxy-(1S)-methyl-ethoxy)-N-(pyrazin-2-yl)-benzamide [Example 59] | 6.42
3-[trans-2-(4-fluorophenyl)vinyl]-5-(2-methoxy-(1S)-methyl-ethoxy)-N-(5-fluorothiazol-2-yl)-benzamide [Example 23] | 7.39
COC[C@H](C)Oc1cc(/C=C/c2ccccc2Cl)cc(C(=O)Nc2ccn(C)n2)c1 (stereo in doubt) [Example 46, 3-[trans-2-(2-chlorophenyl)vinyl]-5-(2-methoxy-(1S)-methyl-ethoxy)-N-(1-methyl-1H-pyrazol-3-yl)-benzamide] | 6.83
3-[2-(2,4-difluorophenyl)ethyl]-5-(2-methoxy-(1S)-methyl-ethoxy)-N-(1-methyl-1H-pyrazol-3-yl)-benzamide [Example 96] | 6.73
COC[C@H](C)Oc1cc(/C=C/c2cccc([N+](=O)[O-])c2)cc(C(=O)Nc2ccc(C(=O)OC)cn2)c1 [Example 63, 3-[trans-2-(3-nitrophenyl)vinyl]-5-(2-methoxy-(1S)-methyl-ethoxy)-N-(nicotinic acid-3-methyl ester-6-yl)-benzamide] | 6.39
3-[trans-2-(2,4-difluorophenyl)vinyl]-5-(2-methoxy-(1S)-methyl-ethoxy)-N-(pyrazin-2-yl)-benzamide [Example 56] | 6.52
3-{2-[4-(3-methyl-butyrylamino)phenyl]ethyl}-5-(2-methoxy-(1S)-methyl-ethoxy)-N-(thiazol-2-yl)-benzamide [Example 134] | 6.45
3-[2-(4-benzenesulfonylaminophenyl)ethyl]-5-(2-methoxy-(1S)-methyl-ethoxy)-N-(thiazol-2-yl)-benzamide [Example 144] | 6.39
3-[2-(2-chlorophenyl)ethyl]-5-(2-methoxy-(1S)-methyl-ethoxy)-N-(1-methyl-1H-pyrazol-3-yl)-benzamide [Example 101] | 7.07
COC[C@H](C)Oc1cc(/C=C/c2cccc([N+](=O)[O-])c2)cc(C(=O)Nc2ccc(C(=O)O)cn2)c1 [Example 75, 3-[trans-2-(3-nitrophenyl)vinyl]-5-(2-methoxy-(1S)-methyl-ethoxy)-N-(nicotinic acid-6-yl)-benzamide] | 6.78
3-{2-[4-(4-fluorobenzoylamino)phenyl]ethyl}-5-(2-methoxy-(1S)-methyl-ethoxy)-N-(t hiazol-2-yl)-benzamide [Example 139] | 6.43

Compound | pEC50
COC[C@H](C)Oc1cc(/C=C/c2cc(F)ccc2F)cc(C(=O)Nc2ccc(C(=O)O)cn2)c1 [Example 80, 3-[trans-2-(2,5-difluorophenyl)vinyl]-5-(2-methoxy-(1S)-methyl-ethoxy)-N-(nicotinic acid-6-yl)-benzamide] | 6.87
CCOC(=O)Nc1cccc(CCc2cc(O[C@@H](C)COC)cc(C(=O)Nc3nccs3)c2)c1 [Example 122, 3-{2-[3-(carbamic acid ethyl ester)phenyl]ethyl}-5-(2-methoxy-(1S)-methyl-ethoxy)-N-(thiazol-2-yl)-benzamide] | 6.69
COC[C@H](C)Oc1cc(CCc2ccccc2OC)cc(C(=O)Nc2ccn(C)n2)c1 [Example 93, 3-[2-(2-methoxyphenyl)ethyl]-5-(2-methoxy-(1S)-methyl-ethoxy)-N-(1-methyl-1-pyrazol-3-yl)-benzamide] | 6.87
CC(C)COc1cc(/C=C/c2c(F)cccc2F)cc(C(=O)Nc2nccs2)c1 [Example 72, 3-[trans-2-(2,6-difluorophenyl)vinyl]-5-isobutoxy-N-(thiazol-2-yl)-benzamide] | 6.92
3-[trans-2-(2,3,5-trifluorophenyl)vinyl]-5-(2-methoxy-(1S)-methyl-ethoxy)-N-(thiazol-2-yl)-benzamide [Example 18] | 6.90
3-[trans-2-(3-nitrophenyl)vinyl]-5-(2-methoxy-(1S)-methyl-ethoxy)-N-(thiazol-2-yl)-benzamide [Example 14] | 7.71
3-[2-(2-fluorophenyl)ethyl]-5-(2-methoxy-(1S)-methyl-ethoxy)-N-(thiazol-2-yl)-benzamide [Example 84] | 7.38
3-[trans-2-(2,3-dimethoxyphenyl)vinyl]-5-(2-methoxy-(1S)-methyl-ethoxy)-N-(thiazol-2-yl)-benzamide [Example 17] | 7.30
3-[trans-2-(2,3-difluorophenyl)vinyl]-5-(2-methoxy-(1S)-methyl-ethoxy)-N-(pyrazin-2-yl)-benzamide [Example 55] | 6.46
COC[C@H](C)Oc1cc(CCc2cccc(NC(=O)CC(=O)O)c2)cc(C(=O)Nc2nccs2)c1 [Example 147, 3-[2-(3-malonamic acid phenyl)ethyl]-5-(2-methoxy-(1S)-methyl-ethoxy)-N-(thiazol-2-yl)-benzamide] | 6.65
3-{2-[3-(4-nitrobenzoylamino)phenyl]ethyl}-5-(2-methoxy-(1S)-methyl-ethoxy)-N-(thiazol-2-yl)-benzamide [Example 127] | 6.58
3-[trans-2-(2-fluorophenyl)vinyl]-5-(2-methoxy-(1S)-methyl-ethoxy)-N-(5-fluorothiazol-2-yl)-benzamide [Example 22] | 7.18
3-[trans-2-(2-nitrophenyl)vinyl]-5-(2-methoxy-(1S)-methyl-ethoxy)-N-(5-fluorothiazol-2-yl)-benzamide [Example 19] | 7.28
3-[2-(4-acetylaminophenyl)ethyl]-5-(2-methoxy-(1S)-methyl-ethoxy)-N-(thiazol-2-yl)-benzamide [Example 132] | 6.45
3-[trans-2-(3,5-dimethoxyphenyl)vinyl]-5-(2-methoxy-(1S)-methyl-ethoxy)-N-(5-fluorothiazol-2-yl)-benzamide [Example 31] | 7.33
3-{2-[3-(3-methyl-butyrylamino)phenyl]ethyl}-5-(2-methoxy-(1S)-methyl-ethoxy)-N-(thiazol-2-yl)-benzamide [Example 120] | 6.33
3-[2-(2,3-dimethoxyphenyl)ethyl]-5-(2-methoxy-(1S)-methyl-ethoxy)-N-(1-methyl-1H-pyrazol-3-yl)-benzamide [Example 103] | 6.35
3-[2-(2,6-difluorophenyl)ethyl]-5-(2-methoxy-(1S)-methyl-ethoxy)-N-(thiazol-2-yl)-benzamide [Example 87] | 7.46
COC[C@H](C)Oc1cc(/C=C/c2ccccc2F)cc(C(=O)Nc2ccc(C(=O)OC)cn2)c1 [Example 64, 3-[trans-2-(2-fluorophenyl)vinyl]-5-(2-methoxy-(1S)-methyl-ethoxy)-N-(nicotinic acid-3-methyl ester-6-yl)-benzamide] | 6.80
